Assay results as given in paper PMC9748900, “Unconventional isoquinoline-based SERMs elicit fulvestrant-like transcriptional programs in ER+ breast cancer cells” (NPJ Breast Cancer, 2022).
“Also recorded” adds a separate entry of the source. Read-outs that look alike come from different tables or passages of the source.

Experiments:
ERα [1] = target: T1, ERα (Homo sapiens, UniProt P03372); experiment: ERE transcriptional reporter gene assay in MCF7 cells; type: cell-based; design: endogenous in cells; host or cells: MCF7 cells with 3x-ERE-GFP reporter
T1 sequence (P03372 1-595): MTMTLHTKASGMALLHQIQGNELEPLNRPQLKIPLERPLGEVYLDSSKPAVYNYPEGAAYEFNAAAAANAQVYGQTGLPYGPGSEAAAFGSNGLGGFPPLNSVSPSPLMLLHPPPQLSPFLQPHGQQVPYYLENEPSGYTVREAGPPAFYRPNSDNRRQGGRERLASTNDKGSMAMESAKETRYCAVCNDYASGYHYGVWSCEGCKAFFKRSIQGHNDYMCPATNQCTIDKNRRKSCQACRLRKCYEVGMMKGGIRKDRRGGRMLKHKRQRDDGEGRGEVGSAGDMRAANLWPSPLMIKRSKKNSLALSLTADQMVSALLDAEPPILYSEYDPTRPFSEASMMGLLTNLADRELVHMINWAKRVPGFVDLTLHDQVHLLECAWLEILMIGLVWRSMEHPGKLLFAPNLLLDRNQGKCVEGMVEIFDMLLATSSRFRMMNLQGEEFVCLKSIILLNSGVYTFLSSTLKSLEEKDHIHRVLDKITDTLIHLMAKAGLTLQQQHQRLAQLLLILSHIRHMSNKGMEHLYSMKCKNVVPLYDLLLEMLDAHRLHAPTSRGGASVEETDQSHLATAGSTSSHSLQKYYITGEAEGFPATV
Description: A cyclopropyl group was used in place of RAD1901’s ethylamine. […] We initially synthesized 4 derivatives comprised of different pharmacophores on the analogous steroidal A ring (Fig. 2d) and used an ERE reporter gene assay in MCF7 breast cancer cells to measure their transcriptional inhibitory activities.
This assay was performed in accordance with a previous report. MCF7 breast cancer cells with a 3x-estrogen response element-green fluorescent protein (GFP) reporter gene construct under a CMV promoter were plated in 96-well dishes at 3000 cells per well. Cells were cultured for 48 h in stripped media that included charcoal stripped fetal bovine serum (FBS). Cells were treated with increasing concentrations of antiestrogen (5 pm to 1 µM) for 24 h. Subsequently, percent GFP-positive cells were imaged using a BioTek Cytation 5 live cell imager. All assays were performed three times with three technical replicates each.

[2] = test system: Ishikawa endometrial cells; experiment: Alkaline phosphatase (AP) assay in Ishikawa cells; type: cell-based, human; conditions: 72 h; for AP1 Induction: 1 nM E2 or 1 μM compound, absorbance at 405 nm, mean + std. dev., n = 3-9
From the text: SERM enhancement of ERα accumulation in breast cancer cells correlates with uterotrophic activities[22],[30]. Despite the inclusion of side arms from known SERDs, most T6Is appeared SERM-like in breast cancer cells as they increased ERα levels. To measure the SERM-agonist activities of the T6Is, we employed an AP activity assay in Ishikawa endometrial cells[22],[32],[40]. […] Many T6Is show unexpected AP activities in these cells. […] Therefore, we would expect these SERMs to show a greater induction of AP (Supplementary Fig. 5). […] This difference was significant (p = 0.004) compared to 4OHT, which measured 0.68 ± 0.12 absorbance units. In most studies of SERM-agonist activities, AP assays are combined with increases in uterine wet-weight in vivo[22],[41],[42].
AP assays were performed as described. Briefly, 15,000 Ishikawa cells were seeded into 96-well plates then placed in serum-starved medium for 48–72 h. Cells were treated for three days with veh, hormone, SERM, or SERD. The media was aspirated and the cells were frozen at −80 °C for at least 24 h. Cells were thawed then incubated with p-nitrophenyl phosphate (ThermoFisher) chromogenic AP substrate. After 60 min at 40 °C, absorbance was read at 405 nm on a BioTek Cytation 5 plate reader.

Ishikawa cells = experiment: Ishikawa cell count (endometrial proliferation); type: cell-based, human; conditions: 1 nM E2 or 1 μM antiestrogen, 144 h
[3] = test system: transcriptome of T47D breast cancer cells; experiment: RNA sequencing of T47D cells; type: cell-based
Description: We next used RNA transcriptomic analysis (RNAseq) to identify differentially affected genes. […] All sequencing runs were performed with three replicates per treatment.
T47D breast cancer cells were grown in 6-well dishes at 50,000 cells per well. […] After 24 h, they were placed in serum-starved media for 48 h. […] RNA was isolated using a Qiagen RNeasy Kit then sent to Novogene for sequencing and bioinformatics analysis.

[4] = test system: gene expression in MCF7:WS8 breast cancer cells; experiment: qPCR gene expression in MCF7:WS8 cells
[5] = test system: gene expression in T47D breast cancer cells; experiment: qPCR gene expression in T47D cells; type: cell-based; conditions: 1 μM + 1 nM E2, 16 h
T47D breast cancer cells = experiment: Cellular proliferation (label-free cell count), T47D; type: cell-based; conditions: 1 nM E2, normalized to vehicle
Description: In addition, we used a crystal violet assay to measure the effect of T6I-14-1 on MCF7 viability.
MCF7, MCF7:WS:8, Y537S ESR1 MCF7 and T47D breast cancer cell lines were grown in 96-well dishes at a starting cell count of 1000 cells per well. […] Cells were grown in a BioSpa attached to a BioTek Cytation 5 and were automatically counted every twelve hours for 7–10 days or until the E2-only wells reached confluence. Media was replaced every 4 days and drug was maintained in each media change. Each study was repeated three times with three technical replicates each.

[6] = test system: patients with advanced disease with prior hormone therapy; conditions: compared to standard of care ref 6, cited from earlier work
ERα [7] = target: T1, ERα; experiment: In-cell Western of ERα levels in MCF7:WS8 cells; type: cell-based; design: endogenous in cells; conditions: MCF7:WS8, 1 μM, 24 h, compared to 4OHT
From the text: SERMs and SERDs differentially affect ERα cellular lifetime/accumulation, which correlates with tissue-specific partial agonistic activities. SERMs increase WT ERα lifetime and are partial agonists in the bone and uterine epithelium by maintaining AF-1-dependent transcriptional coactivator recruitment. SERDs induce rapid WT ERα degradation and are pure antagonists[14],[17],[19],[22],[33]. […] We used an in-cell Western approach to measure how a subset of T6Is affected ERα levels in MCF7:WS8 breast cancer cells. […] A live cell halo-tagged ERα assay was then used to measure the impact of an expanded set of T6Is on receptor accumulation in T47D breast cancer cells after 24 h treatment. […] The difference between T6I-14 and 4OHT was not statistically significant in this assay. […] The IC50 values generally trended with observed differences in transcriptional IC50 (Fig. 2), while the effect at maximum dose varied greatly.
In-cell Western analysis was performed in a similar manner as previously described. Briefly, T47D or MCF7:WS8 breast cancer cells were grown in blackout 96-well plates starting at 3000 cells per well. After 24 h, cells were placed in serum-starved media and allowed to acclimate for 48–72 h. Cells were treated with hormone, SERM, or SERD alongside vehicle control for 24 h. […] All data were collected on a LI-COR Odyssey DLx and analyzed using Emperia Studio. […]

[8] = MCF7, 1 nM E2, read-out: Log(IC50) (converted)

Question: Which results are given for O=C(c1ccccc1)N1C(c2ccc(OCCN3CCCC3)cc2)c2ccc(O)cc2CC12CC2 (stereo not drawn) [T6I-1D]?
Answer: IC50 (ERα [1]; [8]): 123 nM; IC50 (ERα [1]; MCF7, 1 nM E2, read-out: anti-transcriptional IC50): ~100 nM

Question: Which “AP1 Induction” value [2] does the source give for CCCCCN1CCC(COc2ccc(C3c4ccc(O)cc4CC4(CC4)N3C(=O)c3ccccc3)cc2)C1 (stereo not drawn) [T6I-23] here?
Answer: 0.44 + 0.08

Question: For CCCN1CCC(CSc2ccc(C3c4ccc(O)cc4CC4(CC4)N3C(=O)c3ccccc3)cc2)C1 (stereo not drawn) [T6I-SH], which “AP1 Induction” value [2] is on record?
Answer: 0.42 + 0.07

Question: Which results are given for C[C@]12CC[C@@H]3c4ccc(O)cc4CC[C@H]3[C@@H]1CC[C@@H]2O [E2, 17β-estradiol]?
Answer: Ishikawa cell count (Ishikawa cells): robust enhancement of proliferation; SUMO-related differentially expressed genes (RNAseq) [3]: downregulates SUMO1 and upregulates desumoylating enzymes including SENP1 and SENP8

Question: For Oc1ccc2c(c1)CC[C@H](c1ccccc1)[C@@H]2c1ccc(OCCN2CCCC2)cc1 [Laso, lasofoxifene], which “cMYC mRNA” value ([4]; MCF7:WS8, 1 μM + 1 nM E2) is on record?
Answer: upregulated cMYC but it was significantly less (p = 0.02) than T6I-29-1A

Question: And the “AP1 Induction” value [2]?
Answer: 0.51 + 0.16

Question: And the AP activity ([2]; 1 μM)?
Answer: 0.51 ± 0.16 absorbance units

Question: What about the “CDK1 mRNA” value [5] of the same compound?
Answer: slightly upregulated CDK1

Question: What about the “RPS6KL1 mRNA” value [5] of the same compound?
Answer: only slightly enriched

Question: With O=C(c1ccccc1)N1C(c2ccc(OCC3CN(CCCCl)C3)cc2)c2ccc(O)cc2CC12CC2 (stereo not drawn) [T6I-4B] as the compound, how does the “AP1 Induction” value [2] read?
Answer: 0.61 + 0.10

Question: And the “AP induction (in words)” value ([2]; 1 μM)?
Answer: significant induction of AP compared to the propylazetidine-containing T6I-4

Question: Which IC50 (ERα [1]; [8]) does the source give for O=C(CC(F)(F)F)N1C(c2ccc(OCCN3CCCC3)cc2)c2ccc(O)cc2CC12CC2 (stereo not drawn) [T6I-1C] here?
Answer: 170 nM

Question: Which “AP1 Induction” value [2] does the source give for CCCN1CCC(CCc2ccc(C3c4ccc(O)cc4CC4(CC4)N3C(=O)c3ccccc3)cc2)C1 (stereo not drawn) [T6I-Me] here?
Answer: 0.57 + 0.08

Question: For CCCCN1CCC(COc2ccc(C3c4ccc(O)cc4CC4(CC4)N3C(=O)c3ccccc3)cc2)C1 (stereo not drawn) [T6I-22], which “AP1 Induction” value [2] is on record?
Answer: 0.55 + 0.06

Question: For CCN1CC(COc2ccc(C3c4ccc(O)cc4CC4(CC4)N3C(=O)c3ccccc3)cc2)C1 (stereo not drawn) [T6I-3], which “AP1 Induction” value [2] is on record?
Answer: 0.34 + 0.07

Question: What about the “anti-proliferative activity, cell count after 7 days (Fig. 7)” value (T47D breast cancer cells) of the same compound?
Answer: did not improve anti-proliferative activities

Question: For CCCN1CCC(CNc2ccc(C3c4ccc(O)cc4CC4(CC4)N3C(=O)c3ccccc3)cc2)C1 (stereo not drawn) [T6I-NH], which “AP1 Induction” value [2] is on record?
Answer: 0.50 + 0.09

Question: For CC/C(=C(\c1ccc(O)cc1)c1ccc(OCCN(C)C)cc1)c1ccccc1 [4OHT, 4-hydroxytamoxifen, reference compound], which “AP1 Induction” value [2] is on record?
Answer: 0.67 + 0.12

Question: What about the “AP induction (in words)” value ([2]; 1 μM) of the same compound?
Answer: robust stimulation of AP activity

Question: What about the Ishikawa cell count (Ishikawa cells) of the same compound?
Answer: marginal but insignificant increase to cell count

Question: Which “AP1 Induction” value [2] does the source give for O=C(c1ccccc1)N1C(c2ccc(OCC3CCN(CCCF)C3)cc2)c2ccc(O)cc2CC12CC2 (stereo not drawn) [T6I-29] here?
Answer: 0.63 + 0.08

Question: What about the “AP induction (in words)” value ([2]; 1 μM) of the same compound?
Answer: greater induction of AP1 compared to its separated chiral species

Question: What about the “anti-proliferative activity, cell count after 7 days (Fig. 7)” value (T47D breast cancer cells) of the same compound?
Answer: slightly improved efficacy versus propyl alone

Question: Which results are given for CCNCCc1ccc(CN(CC)c2cc(OC)ccc2[C@@H]2CCc3cc(O)ccc3C2)cc1 [RAD1901, elacestrant]?
Answer: reduced risk of disease progression or death ([6]; all patients): 30%; reduced risk of disease progression or death ([6]; patients with ESR1 mutations, including the Y537S): 45%; CDK1 mRNA ([4]; MCF7:WS8): downregulated its expression; AP1 Induction [2]: 0.28 + 0.08; CDK1 mRNA [5]: slightly upregulated CDK1; RPS6KL1 mRNA [5]: only slightly enriched

Question: For CCCN1CCC(COc2ccc(C3c4ccc(O)cc4CC4(CC4)N3C(=O)c3ccccc3)cc2)C1 (stereo not drawn) [T6I-14], which “ERα levels by in-cell Western” value (ERα [7]) is on record?
Answer: significant enhancement

Question: With O=C(c1ccccc1)N1C(c2ccc(OCC3CN(CCCF)C3)cc2)c2ccc(O)cc2CC12CC2 (stereo not drawn) [T6I-4A] as the compound, how does the “AP1 Induction” value [2] read?
Answer: 0.69 + 0.16

Question: And the “AP induction (in words)” value ([2]; 1 μM)?
Answer: significant induction of AP compared to the propylazetidine-containing T6I-4

Question: For CCCN1CC(COc2ccc(C3c4ccc(O)cc4CC4(CC4)N3C(=O)c3ccccc3)cc2)C1 (stereo not drawn) [T6I-4], which “AP1 Induction” value [2] is on record?
Answer: 0.24 + 0.07

Question: What about the “AP induction (in words)” value ([2]; 1 μM) of the same compound?
Answer: AP induction similar to a SERD; also recorded: no measurable AP1 activity
